Values quoted from earlier work as cited in patent US20250345332A1, “APROCITENTAN FOR THE TREATMENT OF HYPERTENSION” (IDORSIA PHARMACEUTICALS LTD, priority 2022, published 2025).

How the values were obtained:
[1] = system: patients with rHT; settings: cited from earlier work
[2] = system: patients with type 2 diabetes and overt diabetic nephropathy; settings: in vivo; cited from earlier work
[3] = system: subjects having essential hypertension; settings: lisinopril 20 mg, cited from earlier work
[4] = system: subjects having essential hypertension; settings: after 8 weeks once daily, at trough, aprocitentan 5, 10, 25, 50 mg groups, lisinopril 20 mg, cited from earlier work

SMILES: COc1cc(OC)nc(O[C@H](C(=O)O)C(OC)(c2ccccc2)c2ccccc2)n1 [darusentan]
- reduction of ambulatory blood pressure ([1]; 14 weeks): demonstrated efficacy
- treatment effect on the primary endpoint systolic blood pressure ([1]; 14 weeks): failed to show significant treatment effect
- fluid retention/edema (most frequent adverse event) ([1]; versus 12% in each of the other groups): 28%

SMILES: COc1ccccc1Oc1c(NS(=O)(=O)c2ccc(C)cn2)nc(-c2ccncc2)nc1OC [Avosentan, avosentan]
- albumin-to-creatinine ratio (ACR) [2]: significantly reduced

SMILES: NCCCC[C@H](N[C@@H](CCc1ccccc1)C(=O)O)C(=O)N1CCC[C@H]1C(=O)O [lisinopril, reference compound]
- discontinuation from study treatment due to an adverse event ([3]; aprocitentan 5-50 mg groups): 3.7%
- mean body weight decrease from baseline [3]: 0.3 kg
- mean reduction from baseline in diastolic blood pressure ([4]; per-protocol population): 8.4 mmHg
- systolic blood pressure reductions [4]: 12.8 mmHg
